From PubChem BioAssay AID248 (DTP/NCI, 2004)
Where “and” joins values, the source holds several entries; their conditions need not be identical. Identical values can stand only once. Inconclusive results and toxic doses are left out.

System: L1210 leukemia ip in BDF1 mice, survival T/C
Test: NCI In Vivo Anticancer Drug Screen. Data for tumor model L1210 Leukemia (intraperitoneal) in B6D2F1 (BDF1) mice
Settings: endpoint: mean survival time, higher = longer survival
Outline: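 In this screen, tumor-bearing mice given compound are compared to those given vehicle, and their survival values are reported as a treated-to-control quotient.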

[1] = dose: 50.0 mg/kg/injection, schedule: Q01DX001 (ip), vehicle: carboxymethylcellulose (CMC)
[2] = dose: 100.0 mg/kg/injection, schedule: Q01DX001 (ip), vehicle: carboxymethylcellulose (CMC)
[3] = dose: 200.0 mg/kg/injection, schedule: Q01DX001 (ip), vehicle: carboxymethylcellulose (CMC)
[4] = dose: 400.0 mg/kg/injection, schedule: Q01DX001 (ip), vehicle: carboxymethylcellulose (CMC)
[5] = dose: 100.0 mg/kg/injection, schedule: Q01DX001 (ip), vehicle: Klucel (hydroxypropylcellulose) (HPC)
[6] = dose: 100.0 mg/kg/injection, schedule: Q01DX009 (ip), vehicle: Klucel (hydroxypropylcellulose) (HPC)
[7] = dose: 100.0 mg/kg/injection, schedule: Q04DX002 (ip), vehicle: Klucel (hydroxypropylcellulose) (HPC)
[8] = dose: 100.0 mg/kg/injection, schedule: Q04DX003 (ip), vehicle: Klucel (hydroxypropylcellulose) (HPC)
[9] = dose: 200.0 mg/kg/injection, schedule: Q01DX001 (ip), vehicle: Klucel (hydroxypropylcellulose) (HPC)
[10] = dose: 200.0 mg/kg/injection, schedule: Q01DX009 (ip), vehicle: Klucel (hydroxypropylcellulose) (HPC)
[11] = dose: 200.0 mg/kg/injection, schedule: Q04DX002 (ip), vehicle: Klucel (hydroxypropylcellulose) (HPC)
[12] = dose: 200.0 mg/kg/injection, schedule: Q04DX003 (ip), vehicle: Klucel (hydroxypropylcellulose) (HPC)
[13] = dose: 400.0 mg/kg/injection, schedule: Q01DX001 (ip), vehicle: Klucel (hydroxypropylcellulose) (HPC)
[14] = dose: 400.0 mg/kg/injection, schedule: Q01DX009 (ip), vehicle: Klucel (hydroxypropylcellulose) (HPC)
[15] = dose: 400.0 mg/kg/injection, schedule: Q04DX002 (ip), vehicle: Klucel (hydroxypropylcellulose) (HPC)
[16] = dose: 400.0 mg/kg/injection, schedule: Q04DX003 (ip), vehicle: Klucel (hydroxypropylcellulose) (HPC)
[17] = dose: 200.0 mg/kg/injection, schedule: Q04DX002 (ip), vehicle: saline

Question: `CN(C)Cc1ccc(Cl)cc1C(O)(c1ccccc1)c1ccccc1` was tested. Which T/C [1] did it give?
Answer: 101 % of control

Question: What about the T/C [2] of the same compound?
Answer: 104 % of control

Question: What about the T/C [3] of the same compound?
Answer: 93 % of control

Question: And the T/C [4]?
Answer: 93 % of control

Question: What does the source list for `COc1cc(NC(=O)Nc2cc(Cl)ccc2C)c(OC)cc1Cl`?
Answer: T/C [5]: 97 % of control; T/C [6]: 94 % of control and 88 % of control; T/C [7]: 104 % of control; T/C [8]: 103 % of control; T/C [9]: 103 % of control; T/C [10]: 87 % of control and 90 % of control; T/C [11]: 98 % of control; T/C [12]: 101 % of control; T/C [13]: 95 % of control; T/C [14]: 88 % of control; T/C [15]: 89 % of control; T/C [16]: 92 % of control

Question: With `C#CCC#CCCCCCC` as the compound, how does the T/C (dose: 50.0 mg/kg/injection, schedule: Q01DX009 (ip), vehicle: saline with Tween-80) read?
Answer: 95 % of control

Question: What about the T/C (dose: 100.0 mg/kg/injection, schedule: Q01DX009 (ip), vehicle: saline with Tween-80) of the same compound?
Answer: 95 % of control

Question: What about the T/C (dose: 200.0 mg/kg/injection, schedule: Q01DX009 (ip), vehicle: saline with Tween-80) of the same compound?
Answer: 95 % of control

Question: What does the source list for `CCNC(=S)NNC(=O)c1ccc(N=NN(C)C)cc1`?
Answer: T/C (dose: 100.0 mg/kg/injection, schedule: Q04DX002 (ip), vehicle: saline with Tween-80): 100 % of control; T/C (dose: 200.0 mg/kg/injection, schedule: Q04DX002 (ip), vehicle: saline with Tween-80): 94 % of control; T/C (dose: 400.0 mg/kg/injection, schedule: Q04DX002 (ip), vehicle: saline with Tween-80): 100 % of control

Question: What does the source list for `CC1CCC2C(C)C3C(CC4C5CCC6CC(O)CCC6(C)C5CCC43C)N2C1` (stereo unspecified)?
Answer: T/C (dose: 50.0 mg/kg/injection, schedule: Q01DX001 (ip), vehicle: other): 91 % of control; T/C (dose: 100.0 mg/kg/injection, schedule: Q01DX001 (ip), vehicle: other): 88 % of control; T/C (dose: 200.0 mg/kg/injection, schedule: Q01DX001 (ip), vehicle: other): 96 % of control; T/C (dose: 400.0 mg/kg/injection, schedule: Q01DX001 (ip), vehicle: other): 91 % of control

Question: With `O=C(COc1cc(Cl)c(Cl)cc1Cl)Nc1cccc(C(F)(F)F)c1` as the compound, how does the T/C (dose: 100.0 mg/kg/injection, schedule: Q04DX002 (ip), vehicle: saline) read?
Answer: 100 % of control

Question: What about the T/C [17] of the same compound?
Answer: 92 % of control

Question: What about the T/C (dose: 400.0 mg/kg/injection, schedule: Q04DX002 (ip), vehicle: saline) of the same compound?
Answer: 111 % of control

Question: What does the source list for `Nc1ccc(CSc2ccccc2)cc1F`?
Answer: T/C (dose: 100.0 mg/kg/injection, schedule: Q01DX009 (ip), vehicle: saline + alcohol): 94 % of control; T/C (dose: 200.0 mg/kg/injection, schedule: Q01DX009 (ip), vehicle: saline + alcohol): 93 % of control; T/C (dose: 400.0 mg/kg/injection, schedule: Q01DX009 (ip), vehicle: saline + alcohol): 86 % of control

Question: Which T/C [8] does the source give for `CCCCNC(=S)N/N=C/c1ccccn1` here?
Answer: 90 % of control

Question: And the T/C [12]?
Answer: 97 % of control

Question: With `Cc1ccc(NC(=O)Nc2cccc(Cl)c2)c(C)c1` as the compound, how does the T/C [6] read?
Answer: 86 % of control

Question: And the T/C [10]?
Answer: 94 % of control

Question: What about the T/C [14] of the same compound?
Answer: 87 % of control

Question: With `CCSC1OC(C(COC(C)=O)OC(C)=O)C(OC(C)=O)C1NC(C)=S` (stereo unspecified) as the compound, how does the T/C (dose: 50.0 mg/kg/injection, schedule: Q01DX001 (ip), vehicle: saline) read?
Answer: 97 % of control

Question: What about the T/C (dose: 100.0 mg/kg/injection, schedule: Q01DX001 (ip), vehicle: saline) of the same compound?
Answer: 103 % of control

Question: And the T/C (dose: 200.0 mg/kg/injection, schedule: Q01DX001 (ip), vehicle: saline)?
Answer: 103 % of control

Question: And the T/C (dose: 400.0 mg/kg/injection, schedule: Q01DX001 (ip), vehicle: saline)?
Answer: 100 % of control

Question: Which results are given for `Cc1cc2nc(SCC(=O)O)[nH]c2cc1C`?
Answer: T/C (dose: 100.0 mg/kg/injection, schedule: Q01DX009 (ip), vehicle: gum acacia): 96 % of control; T/C (dose: 100.0 mg/kg/injection, schedule: Q04DX003 (ip), vehicle: gum acacia): 99 % of control; T/C (dose: 200.0 mg/kg/injection, schedule: Q01DX009 (ip), vehicle: gum acacia): 89 % of control; T/C (dose: 200.0 mg/kg/injection, schedule: Q04DX003 (ip), vehicle: gum acacia): 103 % of control; T/C (dose: 400.0 mg/kg/injection, schedule: Q04DX003 (ip), vehicle: gum acacia): 93 % of control

Question: Which results are given for `CCCCNC(=O)Nc1ccc(Cl)cc1`?
Answer: T/C (dose: 25.0 mg/kg/injection, schedule: Q01DX001 (ip), vehicle: saline with Tween-80): 100 % of control; T/C (dose: 50.0 mg/kg/injection, schedule: Q01DX001 (ip), vehicle: saline with Tween-80): 88 % of control; T/C (dose: 100.0 mg/kg/injection, schedule: Q01DX001 (ip), vehicle: saline with Tween-80): 88 % of control; T/C [7]: 96 % of control; T/C [11]: 100 % of control; T/C [15]: 104 % of control

Question: `CCCOc1ccc(C(=O)C(=O)c2ccccc2)cc1` was tested. Which T/C [2] did it give?
Answer: 97 % of control

Question: And the T/C [3]?
Answer: 100 % of control

Question: And the T/C [4]?
Answer: 97 % of control

Question: `CC(=O)CC(=O)NC1CCCC1` was tested. Which T/C [6] did it give?
Answer: 103 % of control

Question: And the T/C [8]?
Answer: 100 % of control

Question: What about the T/C [10] of the same compound?
Answer: 100 % of control

Question: And the T/C [12]?
Answer: 100 % of control

Question: And the T/C [14]?
Answer: 100 % of control

Question: What about the T/C [16] of the same compound?
Answer: 100 % of control

Question: How did the T/C [2] turn out when `Cc1ncc(COCc2ccccc2)c(CO)c1OCc1ccccc1` was run?
Answer: 92 % of control

Question: What about the T/C [3] of the same compound?
Answer: 94 % of control

Question: And the T/C [4]?
Answer: 94 % of control

Question: `CC(=[N-])CC(C)=O.CC(=[N-])CC(C)=O.[Co+2]` was tested. Which T/C (dose: 12.5 mg/kg/injection, schedule: Q01DX001 (ip), vehicle: saline) did it give?
Answer: 86 % of control

Question: And the T/C (dose: 25.0 mg/kg/injection, schedule: Q01DX001 (ip), vehicle: saline)?
Answer: 98 % of control

Question: Which results are given for `Clc1ccc(N=Cc2ccccc2)cn1`?
Answer: T/C [1]: 105 % of control; T/C [2]: 88 % of control; T/C [3]: 111 % of control; T/C [4]: 100 % of control

Question: For `O=C(O)C1C2CC3C(C2)C31` (stereo unspecified), which T/C (dose: 100.0 mg/kg/injection, schedule: Q04DX003 (ip), vehicle: other) is on record?
Answer: 97 % of control

Question: And the T/C (dose: 200.0 mg/kg/injection, schedule: Q04DX003 (ip), vehicle: other)?
Answer: 98 % of control

Question: And the T/C (dose: 400.0 mg/kg/injection, schedule: Q04DX003 (ip), vehicle: other)?
Answer: 88 % of control

Question: Which T/C [5] does the source give for `CC(=O)OCOC1C(COC(C)=O)OCOC(COC(C)=O)C1OCOC(C)=O` (stereo unspecified) here?
Answer: 103 % of control

Question: What about the T/C [9] of the same compound?
Answer: 103 % of control

Question: What about the T/C [13] of the same compound?
Answer: 110 % of control

Question: With `CCOC(=O)CC1(C)NC(C(=O)O)C(C)(C)S1` (stereo unspecified) as the compound, how does the T/C [6] read?
Answer: 97 % of control

Question: And the T/C [14]?
Answer: 97 % of control

Question: Which T/C (dose: 25.0 mg/kg/injection, schedule: Q01DX009 (ip), vehicle: saline) does the source give for `COc1cc2c(c(OC)c1O)-c1ccc(OC)c(=O)cc1[C@@H](NC(C)=O)CC2` here?
Answer: 159 % of control

Question: And the T/C (dose: 50.0 mg/kg/injection, schedule: Q01DX009 (ip), vehicle: saline)?
Answer: 106 % of control and 108 % of control

Question: And the T/C (dose: 50.0 mg/kg/injection, schedule: Q04DX002 (ip), vehicle: saline)?
Answer: 111 % of control

Question: What about the T/C [17] of the same compound?
Answer: 122 % of control

Question: And the T/C (dose: 200.0 mg/kg/injection, schedule: Q04DX003 (ip), vehicle: saline)?
Answer: 95 % of control

Question: How did the T/C [5] turn out when `C/C(=C/c1c(C)c([N+](=O)[O-])c(C)c(C)c1[N+](=O)[O-])C(=O)O` was run?
Answer: 100 % of control

Question: And the T/C [8]?
Answer: 114 % of control

Question: And the T/C [9]?
Answer: 91 % of control

Question: And the T/C [12]?
Answer: 97 % of control

Question: What about the T/C [13] of the same compound?
Answer: 107 % of control

Question: What about the T/C [16] of the same compound?
Answer: 101 % of control

Question: With `Clc1ccc2c[n+]3ccccc3cc2c1` as the compound, how does the T/C (dose: 2.0 mg/kg/injection, schedule: Q01DX Z (ip), vehicle: carboxymethylcellulose (CMC)) read?
Answer: 102 % of control

Question: What about the T/C (dose: 4.0 mg/kg/injection, schedule: Q01DX Z (ip), vehicle: carboxymethylcellulose (CMC)) of the same compound?
Answer: 92 % of control

Question: And the T/C (dose: 8.0 mg/kg/injection, schedule: Q01DX Z (ip), vehicle: carboxymethylcellulose (CMC))?
Answer: 103 % of control

Question: And the T/C (dose: 16.0 mg/kg/injection, schedule: Q01DX Z (ip), vehicle: carboxymethylcellulose (CMC))?
Answer: 105 % of control

Question: `C/C(=C/c1ccc([N+](=O)[O-])cc1)C(=O)O` was tested. Which T/C [6] did it give?
Answer: 96 % of control

Question: And the T/C [10]?
Answer: 115 % of control

Question: And the T/C [14]?
Answer: 107 % of control
